In paper PMC8074465, “Synthesis of oxadiazole-2-oxide derivatives as potential drug candidates for schistosomiasis targeting SjTGR” (Parasites & Vectors, 2021) one finds IC50 data, which are given here for three compounds.

Where two headings read alike, the source gives them in different places. Some results are limits rather than exact numbers.

The test has as its target T1, rSjTGR-Sec (Schistosoma japonicum, UniProt B5THG7).
T1 sequence (B5THG7 1-596): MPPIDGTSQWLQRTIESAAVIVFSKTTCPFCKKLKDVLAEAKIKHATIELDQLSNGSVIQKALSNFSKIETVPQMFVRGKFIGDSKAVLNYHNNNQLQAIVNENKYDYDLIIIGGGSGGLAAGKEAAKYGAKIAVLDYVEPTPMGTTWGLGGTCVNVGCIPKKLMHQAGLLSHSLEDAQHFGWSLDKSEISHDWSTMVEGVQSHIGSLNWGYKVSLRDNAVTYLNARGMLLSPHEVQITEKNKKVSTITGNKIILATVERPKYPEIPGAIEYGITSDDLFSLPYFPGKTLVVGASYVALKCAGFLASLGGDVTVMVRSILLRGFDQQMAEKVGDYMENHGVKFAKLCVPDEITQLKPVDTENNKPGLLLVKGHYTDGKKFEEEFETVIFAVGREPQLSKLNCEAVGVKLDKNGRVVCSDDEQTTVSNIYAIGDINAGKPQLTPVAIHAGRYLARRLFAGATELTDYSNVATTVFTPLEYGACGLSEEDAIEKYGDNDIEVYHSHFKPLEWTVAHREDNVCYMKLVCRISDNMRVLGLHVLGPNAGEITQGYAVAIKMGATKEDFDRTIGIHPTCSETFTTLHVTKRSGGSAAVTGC
Description: Inhibition of TrxR activity of rSjTGR-Sec (DTNB reduction, absorbance 412 nm). In kind it is biochemical. As to conditions: DTNB, pH 7.0, 25 °C, triplicate, >50 μM = flat response within range tested. On the procedure: The rSjTGR-Sec was expressed and harvested as described previously. […] The rSjTGR-Sec was purified by His Mag™ Agarose beads according to manufacturer’s instructions. The concentration of purified rSjTGR-Sec was determined using a Bradford assay kit (Sangon, China), and the protein was identified by sodium dodecyl sulfate polyacrylamide gel electrophoresis (SDS-PAGE) and stored at 4 °C [20].
The novel furoxan derivatives in this work were dissolved in DMSO with a storage solution concentration of 64 millimoles per liter. The analysis of TrxR activity of SWAP containing wtSjTGR and rSjTGR-Sec was performed based on methods described previously. Analysis of the inhibitory activity of the compounds against the TrxR activity of SWAP containing wtSjTGR and rSjTGR-Sec described in this paper was also based on a previously described method. The reaction was performed in 0.1 M potassium phosphate buffer (pH 7.0) containing 10 mM EDTA, 100 µM nicotinamide adenine dinucleotide phosphate (NADPH), 0.2 µg supernatant of SWAP containing wtSjTGR or 0.6 µg rSjTGR-Sec, and the studied compounds with different concentrations at 25 °C in a final volume of 200 μL, and was initiated by adding 3 mM DTNB. […] All assays were done in triplicate.

In the case of `COc1ccc(-c2no[n+]([O-])c2CNc2ccccc2)cn1` [9ca, 4-(6-methoxypyridin-3-yl)-3-((phenylamino)methyl)-1,2,5-oxadiazole 2-oxide], the IC50 (read-out: IC50 of rSjTGR-Sec) is > 50 µM.
On to `[O-][n+]1onc(-c2ccc(C(F)(F)F)nc2)c1CNc1ccccc1` [9da, 3-((phenylamino)methyl)-4-(6-(trifluoromethyl)pyridin-3-yl)-1,2,5-oxadiazole 2-oxide], for which the half-inhibitory concentration (IC50) (read-out: IC50 of rSjTGR-Sec) was 3.73 ± 1.67 µM.
Turning to `N#Cc1c(-c2ccccc2)no[n+]1[O-]` [Furoxan, reference compound], the IC50 (IC50 of rSjTGR-Sec) was 5.87 ± 1.37 µM.
